# ChEMBL document CHEMBL1201862, “PubChem BioAssay data set” (2004)
# Activity calls are given as the source filed them. Rule as the data show it, for most assays here: actives have a measured EC50 and inactives only a lower limit.
# Tests used:
# [1] = Trypanosoma cruzi growth suppression in host cells – NIH3T3 host cells, beta-gal luminescence, confirmation (AID 2044); type: functional, cell-based;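 also: intracellular parasites grown in NIH/3T3 mouse fibroblasts as host cells; luminescent beta-galactosidase reporter signal from transgenic T. cruzi replicating inside host cells; inhibitors lower the luminescence signal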
# [2] = NIH3T3 cell viability loss – ATP luminescence, mouse fibroblasts, counter-screen, dose response (AID 2010); type: functional, cell-based;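 also: cells exposed to compound for about 90 hours before reading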
# INS1 = test: INS-1E survival protection against cytokine death – cell-based, luminescence, retest, dose response (AID 449756); type: functional; details: Rattus norvegicus, INS1;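 also: cell death triggered by IL-1 beta plus TNF-alpha plus IFN-gamma mixture; protective hits raise ATP signal compared with cytokine alone wells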
# Cytochrome P450 3A4 = Cytochrome P450 3A4 (Homo sapiens, UniProt P08684);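 also: CYP3A4 tested as one member of a cytochrome P450 panel screen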
# Cytochrome P450 3A4, sequence (P08684 whole entry, the tested form may be a part): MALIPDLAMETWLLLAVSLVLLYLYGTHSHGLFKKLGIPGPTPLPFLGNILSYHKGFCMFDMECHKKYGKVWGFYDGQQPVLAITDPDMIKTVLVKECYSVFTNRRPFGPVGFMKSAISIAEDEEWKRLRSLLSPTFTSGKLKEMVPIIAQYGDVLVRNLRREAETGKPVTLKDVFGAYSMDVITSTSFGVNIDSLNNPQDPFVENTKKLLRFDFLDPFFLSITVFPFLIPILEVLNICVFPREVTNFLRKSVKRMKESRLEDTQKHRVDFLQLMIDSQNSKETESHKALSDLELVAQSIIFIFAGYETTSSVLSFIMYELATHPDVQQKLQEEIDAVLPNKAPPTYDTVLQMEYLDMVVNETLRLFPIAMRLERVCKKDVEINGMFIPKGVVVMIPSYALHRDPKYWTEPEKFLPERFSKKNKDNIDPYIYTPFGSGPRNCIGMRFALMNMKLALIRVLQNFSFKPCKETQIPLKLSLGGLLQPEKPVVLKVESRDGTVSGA
# [3] = molecular target: T1, RNA-binding protein pos-1 (Caenorhabditis elegans, UniProt G5EF15); test: disruptors of C. elegans POS-1 RNA interaction – biochemical, fluorescence polarization, dose response (AID 1964);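 also: purified POS-1 fused to maltose binding protein made in E. coli; potency of compounds blocking POS-1 binding to fluorescent RNA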
# T1 sequence (G5EF15 whole entry): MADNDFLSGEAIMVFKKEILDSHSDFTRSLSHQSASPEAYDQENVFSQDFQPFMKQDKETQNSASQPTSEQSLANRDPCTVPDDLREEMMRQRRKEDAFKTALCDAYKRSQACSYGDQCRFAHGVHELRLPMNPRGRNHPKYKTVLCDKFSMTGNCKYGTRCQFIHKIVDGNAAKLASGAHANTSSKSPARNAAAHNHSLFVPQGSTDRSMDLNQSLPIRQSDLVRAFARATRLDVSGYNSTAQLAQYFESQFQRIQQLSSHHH
# [4] = molecular target: T2, Zinc finger protein mex-5 (Caenorhabditis elegans, UniProt Q9XUB2); test: potency of MEX-5 RNA-binding blockers – biochemical, C. elegans, fluorescence polarization, dose response (AID 1960)
# T2 sequence (Q9XUB2 whole entry): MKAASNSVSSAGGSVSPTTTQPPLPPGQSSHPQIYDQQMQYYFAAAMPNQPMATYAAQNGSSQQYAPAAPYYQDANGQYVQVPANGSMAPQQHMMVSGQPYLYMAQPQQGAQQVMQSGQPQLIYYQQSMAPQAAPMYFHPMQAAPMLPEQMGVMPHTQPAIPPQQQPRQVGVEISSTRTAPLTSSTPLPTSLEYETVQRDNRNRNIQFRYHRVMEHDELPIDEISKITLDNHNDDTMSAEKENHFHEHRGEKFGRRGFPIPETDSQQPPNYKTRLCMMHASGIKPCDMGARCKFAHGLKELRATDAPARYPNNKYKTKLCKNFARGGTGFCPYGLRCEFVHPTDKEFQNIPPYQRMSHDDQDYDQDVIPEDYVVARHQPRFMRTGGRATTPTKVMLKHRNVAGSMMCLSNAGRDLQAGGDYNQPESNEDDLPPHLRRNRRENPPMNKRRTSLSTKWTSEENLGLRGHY
# Cytochrome P450 1A2 = molecular target: T3, Cytochrome P450 1A2 (Homo sapiens, UniProt P05177);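 also: PubChem cytochrome P450 panel assay, CYP1A2 panel member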
# T3 sequence (P05177 whole entry): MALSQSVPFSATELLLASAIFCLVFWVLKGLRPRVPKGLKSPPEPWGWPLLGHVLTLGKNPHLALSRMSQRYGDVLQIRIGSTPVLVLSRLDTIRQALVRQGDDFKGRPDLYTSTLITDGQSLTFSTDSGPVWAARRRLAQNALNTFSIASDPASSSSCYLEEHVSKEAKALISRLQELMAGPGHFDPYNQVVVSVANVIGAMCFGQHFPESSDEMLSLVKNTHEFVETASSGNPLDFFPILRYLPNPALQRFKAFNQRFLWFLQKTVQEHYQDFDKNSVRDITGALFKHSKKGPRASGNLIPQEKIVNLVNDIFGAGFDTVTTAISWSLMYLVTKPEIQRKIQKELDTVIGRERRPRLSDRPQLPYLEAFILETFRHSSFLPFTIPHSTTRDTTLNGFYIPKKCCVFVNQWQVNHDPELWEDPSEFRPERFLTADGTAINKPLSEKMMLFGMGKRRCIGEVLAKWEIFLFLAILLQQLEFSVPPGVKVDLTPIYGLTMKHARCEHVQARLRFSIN
# [5] = system: Streptococcus sp. 'group A'; test: Streptococcus pyogenes SK(-)GAS viability under kanamycin – luminescence, BacTiterGlo, confirmation, counter-screen for streptokinase expression inhibitor project, dose response (AID 1900); type: functional, organism-based
# Streptococcus = test: GAS UMAA2166 growth inhibition – luminescence, BacTiterGlo, counter-screen for streptokinase expression inhibitor project, dose response (AID 1915); type: functional, organism-based;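 also: potency for reduction of bacterial viability or growth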
# [6] = Luminescence Cell-Based Dose Response HTS to Identify Activators of Luciferase Translation or Activity in H4 […] Cells. [Related pubchem assays: 1829 (Project Summary), 1814 (Primary HTS)]; type: functional
# [7] = molecular target: T4, Corticotropin-releasing factor receptor 2/Corticotropin-releasing factor-binding protein (Homo sapiens, UniProt P24387+Q13324); test: activators of CRF receptor 2 with binding protein – uHTS hits, confirmation (AID 602473); type: functional; details: read-out: EC50_Mean
# T4 sequence (Q13324 whole entry): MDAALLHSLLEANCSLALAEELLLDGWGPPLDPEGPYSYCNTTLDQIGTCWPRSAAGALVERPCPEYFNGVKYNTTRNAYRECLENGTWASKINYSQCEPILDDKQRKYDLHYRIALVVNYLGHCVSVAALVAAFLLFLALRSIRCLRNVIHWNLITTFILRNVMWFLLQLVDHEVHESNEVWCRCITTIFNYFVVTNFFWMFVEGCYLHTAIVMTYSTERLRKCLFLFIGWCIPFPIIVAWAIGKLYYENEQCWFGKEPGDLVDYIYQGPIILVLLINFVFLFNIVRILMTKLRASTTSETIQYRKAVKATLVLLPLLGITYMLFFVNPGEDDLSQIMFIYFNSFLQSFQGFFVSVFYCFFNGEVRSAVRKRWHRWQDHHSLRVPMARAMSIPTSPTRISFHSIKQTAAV
# T4 sequence (P24387 whole entry): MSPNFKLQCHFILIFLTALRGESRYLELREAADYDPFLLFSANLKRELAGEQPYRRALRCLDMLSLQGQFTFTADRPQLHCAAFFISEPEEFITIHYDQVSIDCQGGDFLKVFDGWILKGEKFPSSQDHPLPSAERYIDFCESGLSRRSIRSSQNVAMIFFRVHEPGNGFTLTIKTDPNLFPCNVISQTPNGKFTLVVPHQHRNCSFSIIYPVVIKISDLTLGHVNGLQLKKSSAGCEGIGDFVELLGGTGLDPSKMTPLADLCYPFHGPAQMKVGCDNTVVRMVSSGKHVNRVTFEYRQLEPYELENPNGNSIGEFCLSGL
compound,measurement,setting,value
COc1ccccc1CN1C[C@@H]2C[C@@H](c3ccc(C)c(C)c3)N3CCC[C@@]23C1=O,EC50,[1],2.26 µM (active)
same,EC50,[2],> 30 µM (not active)
CCC(CO)Oc1cc(NCc2ccc(C(C)(C)C)cc2)c2ncn(C(C)C)c2c1 (stereo unspecified),AC50,INS1,3.07 µM (active)
O=C(CN1CCOCC1)N/N=C/c1c(O)ccc2ccccc12,AC50,INS1,4.87 µM (active)
O=C(Nc1cccc(-c2cn3cccnc3n2)c1)c1ccco1,EC50,[1],0.941 µM (active)
same,EC50,[2],> 30 µM (not active)
same,AC50,Cytochrome P450 3A4,25.1 µM (inconclusive)
CC1=CC(C)(C)N2C(=O)C3(C(C#N)=C(N)OC4=C3C(=O)CCC4)c3c(C)c(C)cc1c32 (stereo unspecified),EC50,[3],> 300 µM (not active)
same,EC50,[4],> 300 µM (not active)
COc1ccc(-c2nc3cnc(N4CCN(C)CC4)nc3n(C)c2=O)cc1,AC50,Cytochrome P450 1A2,25.1 µM (inconclusive)
CC(=O)N1CCN(C(=O)CC2OC(=O)c3ccccc32)CC1 (stereo unspecified),AC50,Cytochrome P450 1A2,22.4 µM (inconclusive)
O=C(CCN1CCN(Cc2ccccc2)CC1)Nc1cccc(Cl)c1,EC50,[1],0.965 µM (active)
same,EC50,[2],> 60 µM (not active)
COc1ccc(C2=NOC(CN=C(N)S)C2)cc1 (stereo unspecified),EC50,[5],3.77 µM (active)
same,EC50,Streptococcus,10.9 µM (active)
CC(C)Cc1ccc(CN2CCC(n3nccc3NC(=O)C3CCCC3)CC2)cc1,EC50,[1],0.313 µM (active)
same,EC50,[2],> 60 µM (not active)
COc1cc(OC)cc(C(=O)Nn2cc(C(=O)N3CCN(C)CC3)c3ccccc3c2=O)c1,AC50,Cytochrome P450 1A2,10 µM (inconclusive)
same,AC50,Cytochrome P450 3A4,28.2 µM (inconclusive)
COc1ccc(CCNC[C@H](O)c2ccc(O)cc2)cc1OC [DENOPAMINE],AC50,Cytochrome P450 3A4,25.1 µM (inconclusive)
Cc1ccc(OC[C@H](O)[C@H](C)NC(C)C)c2c1CCC2,AC50,Cytochrome P450 3A4,31.6 µM (inconclusive)
N#Cc1ccc(CN2CC[C@@]3(CCCNC3)C2)cc1,AC50,Cytochrome P450 1A2,25.1 µM (inconclusive)
same,AC50,Cytochrome P450 3A4,31.6 µM (inconclusive)
CCCC(C)NC(=O)c1ccc(C2SCC(=O)N2Cc2ccco2)cc1 (stereo unspecified),EC50,[3],> 300 µM (not active)
same,EC50,[4],> 300 µM (not active)
Cc1ccc(S(=O)(=O)c2ccccc2)cc1S,EC50,[1],0.983 µM (active)
same,EC50,[2],> 30 µM (not active)
O=C(NCc1cccnc1)c1sc2cc(Cl)ccc2c1Cl,AC50,Cytochrome P450 3A4,0.891 µM (inconclusive)
CCN1C(=O)[C@H]2[C@@H](c3ccc(-c4cccc(Cl)c4)cc3)N[C@@](Cc3ccccc3)(C(=O)OC)[C@H]2C1=O,EC50,[1],2.06 µM (active)
same,EC50,[2],14.6 µM (active)
CC(C)(C)C(=O)Nc1ccnc(-c2cccnc2)n1,AC50,Cytochrome P450 3A4,2.51 µM (inconclusive)
COc1ccc(Nc2ncnc3c2oc2ccccc23)cc1,EC50,[6],7.34 µM (active)
COCCn1c(SCC(=O)NC(=O)NCc2ccccc2)nc2ccccc21,EC50,[1],1.14 µM (active)
same,EC50,[2],> 60 µM (not active)
COc1cccc(C(=O)NNc2nc(C)cc(C)n2)c1,EC50,[3],> 300 µM (not active)
same,EC50,[4],127 µM (active)
CCc1noc(C)c1C(=O)N1CCCC(C(=O)c2cc(F)ccc2OC)C1 (stereo unspecified),EC50,[1],9.23 µM (active)
same,EC50,[2],> 60 µM (not active)
CCOC(=O)c1cc(CC)sc1NC=C1C(=O)NC(=S)NC1=O,EC50,[3],> 300 µM (not active)
same,EC50,[4],15 µM (active)
O=C(CCn1c2c(c3ccccc31)CCCC2)NNC(=O)c1ccccc1C(=O)O,EC50,[7],7.66 µM (active)
C=C(C)CSc1nc2sc3c(c2c(=O)n1-c1ccccc1)CCN(C)C3,EC50,[1],0.197 µM (active)
same,EC50,[2],> 30 µM (not active)
COCCNC(=O)CSc1nc2ccc(N3CCOCC3)cc2c(=O)n1Cc1ccc(OC)cc1,AC50,Cytochrome P450 1A2,15.8 µM (inconclusive)
CCN(CC)CCN1c2ccccc2Sc2ccc3ccccc3c21,AC50,INS1,14 µM (active)
CC(C)OCCCn1/c(=N/C(=O)c2cccs2)c(C#N)cc2c(=O)n3ccccc3nc21,EC50,[3],> 300 µM (not active)
same,EC50,[4],> 300 µM (not active)
COc1cccc(F)c1C(=O)NC(=O)Nc1ccc2nc(C)oc2c1,EC50,[3],17.8 µM (active)
same,EC50,[4],17.4 µM (active)
COc1ccc(-c2c[n+](-c3ccc(Cl)cc3)c3n2CCCCC3)cc1,EC50,[1],0.781 µM (active)
same,EC50,[2],> 60 µM (not active)
same,AC50,INS1,2.16 µM (active)
Cc1ccc(/C(O)=C/c2nc3cc(C)ccc3oc2=O)cc1,EC50,[3],7.64 µM (inconclusive)
same,EC50,[4],1.64 µM (inconclusive)
Cc1ccc(-c2cnc(NC(=O)CCC(=O)N(C)Cc3ccccc3)n2C)cc1,AC50,INS1,21.3 µM (active)
O=C(O)c1ccccc1C(=O)Nc1cc2c(cc1Br)-c1ccccc1C2=O,AC50,Cytochrome P450 1A2,0.631 µM (inconclusive)
O=C(Nc1ccc(F)cc1F)N1CCCCC1c1cccnc1 (stereo unspecified),EC50,[1],0.654 µM (active)
same,EC50,[2],> 60 µM (not active)
CC(C)[C@H](Sc1nc(N)nc2[nH]cnc12)C(=O)O,AC50,Cytochrome P450 1A2,0.316 µM (inconclusive)
COc1ccc(N(C)S(=O)(=O)c2ccc3c(c2)CCC(=O)N3)cc1,AC50,Cytochrome P450 1A2,0.01 µM (inconclusive)
same,AC50,Cytochrome P450 3A4,3.55 µM (inconclusive)
O=C(C1CCCN(Cc2cccc(Cl)c2)C1)N1CCCCC1 (stereo unspecified),EC50,[1],0.167 µM (active)
same,EC50,[2],> 30 µM (not active)
Clc1cc(-c2ccc(/C=N/n3cnnc3)o2)ccc1Br,EC50,[3],59.4 µM (active)
same,EC50,[4],81.6 µM (active)
CCN(CC(=O)Nc1ccc(NC(C)=O)cc1)C(=O)CCCOc1ccc(C(C)(C)C)cc1,AC50,INS1,23.7 µM (active)
CN1CCCC2(CCN(C(=O)c3cnccn3)CC2)C1,AC50,Cytochrome P450 3A4,25.1 µM (inconclusive)
O=C(CN1CCC(C(O)(c2ccccc2)c2ccccc2)CC1)Nc1cc(Cl)ccc1Cl,EC50,[1],1.38 µM (active)
same,EC50,[2],9.41 µM (active)
CC(CN1CCN(C)CC1)OC(=O)c1ccc(Cl)cc1 (stereo unspecified),EC50,[1],0.606 µM (active)
same,EC50,[2],> 60 µM (not active)
COc1ccc(Cl)c(Cn2c(NCc3ccco3)nc3c2c(=O)n(C)c(=O)n3C)c1,AC50,INS1,3.27 µM (active)
CCOC(=O)Cc1ccc(NCc2ccc(Cl)cc2)cc1,EC50,[1],1.47 µM (active)
same,EC50,[2],> 30 µM (not active)
CCOc1cc(/C=N/NC(=O)c2cc(-c3cccc(OC)c3)nc3ccccc23)ccc1O,AC50,INS1,8.15 µM (active)
COc1cccc2c(=O)n(CC(=O)N3CCc4ccccc43)ccc12,EC50,[7],> 53 µM (inactive)
